Test results taken from ChEMBL document CHEMBL5223146, “Synthesis of esters and amides of 2-aryl-1-hydroxy-4-methyl-1H-imidazole-5-carboxylic acids and study of their antiviral activity against orthopoxviruses” (Bioorg Med Chem Lett, 2023).

Assays:
[1] = Selectivity index, ratio of CC50 for African green monkey Vero cells to IC50 for Cowpox virus Grishak infected in Vero cells; format: toxicity, cell-based; conditions: read-out: Ratio CC50/IC50
[2] = (§1) Cytotoxicity against African green monkey Vero cells measured after 4 days by colorimetric assay; format: toxicity, cell-based; conditions: chlorocebus sabaeus, Vero cells; time 4 day
[3] = (§2) Cytotoxicity against MDCK cells measured after 4 days by colorimetric assay; format: toxicity, cell-based, Canis lupus familiaris; conditions: dog, MDCK cells; time 4 day
[4] = test system: Vaccinia virus; experiment: Antiviral activity against Vaccinia virus Copenhagen infected in Vero cells measured after 4 days by colorimetric assay; format: functional, organism-based, Orthopoxvirus vaccinia
[5] = test system: Cowpox virus; experiment: Antiviral activity against Cowpox virus Grishak infected in Vero cells measured after 4 days by colorimetric assay; format: functional, organism-based; conditions: 96 h
[6] = test system: Ectromelia virus; experiment: Antiviral activity against ectromelia virus K-1 infected in Vero cells measured after 4 days by colorimetric assay; format: functional, organism-based; conditions: K-1, Vero, 96 h
[7] = test system: Influenza A virus; experiment: Antiviral activity against Influenza A virus (A/California/07/2009(H1N1)) infected in MDCK cells measured after 4 days by colorimetric assay; format: functional, organism-based
[8] = Selectivity index, ratio of CC50 for African green monkey Vero cells to IC50 for ectromelia virus K-1 infected in Vero cells; format: toxicity, cell-based; conditions: read-out: Ratio CC50/IC50
[9] = Selectivity index, ratio of CC50 for African green monkey Vero cells to IC50 for Vaccinia virus Copenhagen infected in Vero cells; format: toxicity, cell-based; conditions: read-out: Ratio CC50/IC50
[10] = Selectivity index, ratio of CC50 for MDCK cells to IC50 for Influenza A virus (A/California/07/2009(H1N1)) infected in MDCK cells; format: toxicity, cell-based; conditions: dog, read-out: Ratio CC50/IC50
[11] = test system: Vero; experiment: as §1; format: toxicity, cell-based; conditions: chlorocebus sabaeus, vero, 96 h; time 4 day
[12] = test system: MDCK; experiment: as §2; format: toxicity, cell-based, Canis lupus familiaris; conditions: dog, mdck, 96 h; time 4 day
[13] = Orthopoxvirus vaccinia, Copenhagen, Vero, 96 h, read-out: IC50
[14] = Influenza A virus, A/California/07/2009(H1N1), MDCK, 96 h, read-out: IC50

Row | Compound | selectivity ratio [1] | CC50 at 96 h [2] [µM] | CC50 at 96 h [3] [µM] | IC50 [4, 13] [µM] | IC50 [5] [µM] | IC50 [6] [µM] | IC50 ([7]; mdck) | selectivity ratio [8] | selectivity ratio [9] | IC50 ([4]; vero) | IC50 [7, 14] [µM] | selectivity ratio [10] | CC50 [11] [µM] | CC50 [12] [µM]
1 | CCCCNC(=O)c1c(O)nc(-c2ccc([N+](=O)[O-])cc2)n1O | 16 | 201 | 27.2 | 3.02 | 12.3 | 8.9 | Not Active | 23 | 66 | – | – | – | – | –
2 | CCOC(=O)c1c(O)nc(-c2ccccc2)n1O | – | 172 | > 406 | – | – | – | – | – | – | Not Active | 213 | 1.9 | – | –
3 | CCCCNC(=O)c1c(O)nc(-c2ccccc2[N+](=O)[O-])n1O | – | > 314 | > 314 | – | – | – | Not Active | – | – | Not Active | – | – | – | –
4 | O=C(NC1CC1)c1c(O)nc(-c2cccc([N+](=O)[O-])c2)n1O | – | 261 | > 331 | – | – | – | Not Active | – | – | Not Active | – | – | – | –
5 | O=C(NNC(=O)C1C2C=CC(C3CC23)C1C(=O)O)c1ccc(C(F)(F)F)cc1 (centres undefined) | 58.8 | – | – | 0.0076 | 0.0203 | 0.0076 | – | 157 | 157 | – | – | – | 1190 | –
6 | O=C(NC1CC1)c1c(O)nc(-c2ccccc2)n1O | – | > 389 | > 389 | – | – | – | Not Active | – | – | Not Active | – | – | – | –
7 | CCCCNC(=O)c1c(O)nc(-c2ccccc2)n1O | – | 436 | > 366 | 73.4 | – | – | Not Active | – | 6 | – | – | – | – | –
8 | CCOC(=O)c1c(O)nc(-c2cccc([N+](=O)[O-])c2)n1O | – | 375 | > 344 | – | – | – | – | – | – | Not Active | 118 | 2.9 | – | –
9 | CCOC(=O)c1c(O)nc(-c2ccc([N+](=O)[O-])cc2)n1O | 14 | 45.7 | > 344 | 0.45 | 3.23 | 1.07 | – | 43 | 102 | – | 188 | 1.8 | – | –
10 | CCCCNC(=O)c1c(O)nc(-c2cccc([N+](=O)[O-])c2)n1O | – | 164 | > 314 | 17.6 | – | – | Not Active | – | 9 | – | – | – | – | –
11 | O=C(NC1CC1)c1c(O)nc(-c2ccccc2[N+](=O)[O-])n1O | – | > 331 | > 331 | – | – | – | Not Active | – | – | Not Active | – | – | – | –
12 | CCOC(=O)c1c(O)nc(-c2ccc(C(F)(F)F)cc2)n1O | 32 | 322 | > 318 | 0.35 | 10 | 6.75 | Not Active | 46 | 919 | – | – | – | – | –
13 | CCCCNC(=O)c1c(O)nc(-c2ccc(C(F)(F)F)cc2)n1O | – | 26 | – | 3.4 | – | – | Not Active | – | 8 | – | – | – | – | 12.9
14 | O=C(NC1CC1)c1c(O)nc(-c2ccc(C(F)(F)F)cc2)n1O | – | 202 | > 308 | 20.6 | – | – | Not Active | – | 10 | – | – | – | – | –
15 | O=C(NC1CC1)c1c(O)nc(-c2ccc([N+](=O)[O-])cc2)n1O | 16 | 357 | > 331 | 10.7 | 22.1 | 14.7 | Not Active | 24 | 33 | – | – | – | – | –
16 | CCOC(=O)c1c(O)nc(-c2ccccc2O)n1O | 58 | 1830 | > 382 | 15.5 | 31.4 | 23.6 | Not Active | 77 | 117 | – | – | – | – | –
17 | O=C(NC1CC1)c1c(O)nc(-c2ccccc2O)n1O | – | – | – | – | – | – | Not Active | – | – | Not Active | – | – | 299 | > 366
18 | CCCCNC(=O)c1c(O)nc(-c2ccccc2O)n1O | – | 197 | 42.9 | 15 | – | – | Not Active | – | 13 | – | – | – | – | –
19 | CCOC(=O)c1c(O)nc(-c2ccccc2[N+](=O)[O-])n1O | – | 343 | > 344 | – | – | – | Not Active | – | – | Not Active | – | – | – | –
20 | Nc1ccn(C[C@@H](CO)OCP(=O)(O)O)c(=O)n1 [CIDOFOVIR] | 21 | – | – | 32.5 | 46.4 | 34 | – | 29 | 30 | – | – | – | 989 | –
